Results on 2 molecules are retold here after US20170307631A1, “METHODS, SYSTEMS AND PRODUCTS FOR PREDICTING RESPONSE OF TUMOR CELLS TO A THERAPEUTIC AGENT AND TREATING A PATIENT ACCORDING TO THE PREDICTED RESPONSE” (Merrimack Pharmaceuticals, Inc., priority 2008, published 2017).

One assay addresses ErbB2 (Homo sapiens, UniProt P04626). As to conditions: cited from earlier work.
Another assay concerns BT474-M3 xenograft. Kind of assay: Xenograft tumor model treated with H3×B1D2, BT474-M3. It counts as in vivo, mouse. Particulars: 600 μg/injection every 3 days, negative RGR = tumor regression. The protocol: (§1) To characterize the in vivo response of tumors to H3×B1D2 treatment, a panel of tumor cell lines was tested in a xenograft tumor model such as described in Example 1. In the xenograft tumor models, mice (nu/nu mice: 4-5 week old female mice, athymic, nude, outbred background; Albino; purchased from Charles River Labs, Wilmington, Mass.) are implanted in the flank with 5×10^6-2×10^7 cells/mouse (depending on cell line) in […] subcutaneous injection. Mice are monitored for initial tumor growth. Tumors are allowed to grow for several days until the mean tumor volume is approximately 150-200 mm^3. The tumor volume is calculated as V=(π/6 (L×W^2). The mice are treated with the H3×B1D2 antibody at a dosage of 600 μg/injection every 3 days (q3d). Control mice are treated with phosphate buffered saline (PBS) or with wild-type HSA (human serum albumin). Tumor volume is measured for 40-80 days.
(§2) The control and treatment data from the in vivo xenograft experiments was fitted to exponential growth curves, using the following formula: […]
(§3) wherein V is the tumor volume, Vo is the tumor volume at time zero, k is the exponential growth rate and t is the time. The potency of H3×B1D2 in inhibiting tumor growth was represented as the ratio of treatment and control exponential growth rates for each cell line tested. This ratio was denoted “relative growth rate” (RGR) and is represented as: […]

For another assay, the system named is LS180 xenograft. The assay is described as follows: Xenograft tumor model treated with H3×B1D2, LS180. The format is in vivo, mouse. Particulars: 600 μg/injection every 3 days, RGR of 1 = no effect. The procedure: as §1, §2, §3
The test system of assay [1] is pErbB3 and pAKT in ADRr cells. The assay is described as follows: Inhibition of pErbB3 and pAKT by H3×B1D2 in ADRr cells. It counts as cell-based. Particulars: ADRr cells (low ErbB2), computational model and experimental data. The procedure: (§4) For stimulation of the cells, the cells are seeded in duplicate wells with 1000 μl complete media at 150,000 cells per well in 12 well tissue culture plates (for 96 half well ELISA) or in duplicate plate of 100 μl complete media at 20,000 cells per well in 96 well tissue culture plates (for 384 well ELISA). These cells are incubated overnight in a humidified atmosphere of 5% CO2, 95% air and 37 degrees Celsius. Cells are then switched to serum free media: RPMI-1640 media (Gibco) supplemented with, 2 mM L-glutamine (Gibco) and units/mL Pen-Strep (Gibco). Starved cells are incubated in a humidified atmosphere of 5% CO2, 95% air and 37 degrees Celsius for 20-24 hours prior to stimulation. For dose-time matrix studies, cells are stimulated with ligand (HRG) at 0, 1, 2, 3, 4, 5, 7, 10, 20, 30, 60 and 120 minutes. […]
(§5) Levels of protein phosphorylation in the stimulated cells are measured by ELISA. ErbB1, ErbB2, and ErbB3 are measured using R&D Systems Duoset IC kits (ErbB1 DYC1095-E, ErbB2 DYC1768-E, ErbB3 DYC1769-E). […] All ELISAs are visualized with SuperSignal ELISA Pico Chemiluminescent Substrate (Pierce, Catalog #37069) and luminescent signal is measured using a luminometer. […]

Assay [2] deals with pErbB3 and pAKT in OVCAR8-HER2 cells. The assay is described as follows: Inhibition of pErbB3 and pAKT by H3×B1D2 in OVCAR8-HER2 cells. Particulars: OVCAR8-HER2 (higher ErbB2 expression) compared to OVCAR8. The format is cell-based. The procedure:
as §4, §5

The test system of another assay is IGROV1 xenograft. The assay is described as follows: Xenograft tumor model treated with H3×B1D2, IGROV1. It counts as in vivo, mouse. As to conditions: 600 μg/injection every 3 days, RGR of 1 = no effect. The protocol:
as §1, §2, §3

Assay [3] concerns pErbB3 and pAKT signaling in different cell lines. Kind of assay: Inhibition of HRG-induced pErbB3 and pAKT signaling by H3×B1D2, different cell lines. The format is cell-based. Particulars: across different cell lines; 5 nM HRG stimulation, ten-minute lysis. The procedure:
as §4, §5

Turning to `CS(=O)(=O)CCNCc1ccc(-c2ccc3ncnc(Nc4ccc(OCc5cccc(F)c5)c(Cl)c4)c3c2)o1` [lapatinib], the “Lapatinib on-rate for binding to ErbB2 or 2-3 dimers before unit conversion” value at ErbB2 is given as “Unit conversion calculated as 2.95e3 M^−1s^−1/”.
“H3×B1D2: bispecific antibody, anti-ErbB3 single chain antibody H3 linked to anti-ErbB2 single chain antibody B1D2, SEQ ID NO: 41”: the “relative growth rate (RGR = kH3×B1D2/kcontrol)” value in the assay with BT474-M3 xenograft was “negative”; in the assay on LS180 xenograft it was “greater than 1”; in the assay with IGROV1 xenograft it was “greater than 1”. Also, the “percentage of inhibition of pErbB3 and pAKT” value in assay [1] is “poor percentage of inhibition”. The “inhibition percentage of pErbB3 and pAKT” value in assay [2] is on record as “greater inhibition percentage”. For the same molecule, the “IC50 of inhibition of pErbB3 and pAKT signaling” value in assay [3] is reported as “did not greatly change”.
